According to patent publication US20070072209A1, “Methods of treatment and diagnosis of Kaposi's sarcoma (KS) and KS related diseases” (priority 2005, published 2007):

Tests used:
Type in all cases: cell-based, human
[1] = test system: KSHV-infected DMVEC; test: Morpholino treatment and focus inhibition assay (Example 5); conditions: for Foci/spindle morpholigical inhibition: PMO-treated KSHV-infected DMVEC vs control PMO, repeated three times; for effect on phenotype (foci, spindle shape) in focus-inhibition assay (in words): PMO-AS, KSHV-infected DMVEC, 5-10 days
Method: Morpholino Treatment and Focus Inhibition Assay. Phosphorodiamidate morpholino antisense oligonucleotides (PMO-AS) were designed and synthesized by Gene Tools LLC (Philomath, Oreg.) as a Special Delivery formulation, which pairs the morpholino with a partially complementary DNA oligo. A weakly basic delivery agent, Ethoxylated Polyethlyenimine (EPEI) is then used to deliver the anionic morpholino/DNA duplex into the cytosol. PMO-AS were received as sterile, lyophilized solids ([…]) that were solubilized in sterile water to obtain 0.5 mM stock solutions. To load a 35 mm dish of DMVEC at 90% confluence, 5 microl of stock solution was mixed with 5 microl of EPEI delivery solution in 590 μl H20 for 20 minutes at room temperature, and then mixed with 1.5 ml of serum-free RPMI medium. Endothelial growth media was removed from DMVEC, and replaced with the PMO-AS:EPEI:RPMI delivery solution for 3 hours in a 37° C. incubator. After incubation, cells were rinsed, complete endothelial growth medium was added and cells were cultured for up to 10 days without sub-culture, with media replacement every 48-72 hours. This protocol allows for the characteristic post-confluent growth and development of multi-layered spindle-cell aggregates (foci) in KSHV-infected cultures. Cells were monitored daily under the phase microscope to evaluate PMO-AS-inhibition of the development of these foci. At the conclusion of an assay, cells were fixed in 2% paraformaldehyde and stained with a MAB against CD31 (Dako; 1:100) followed by a goat-anti-mouse FITC second conjugate. Junctional staining of cells with CD31 accentuated the disorganized multi-layered nature of the spindle cell aggregates as composed to the flat, organized profile of contact-inhibited cells.
For these assays, KSHV-infected DMVEC monolayers were cultured to 90% confluence and then loaded with each PMO-AS, or maintained as unloaded controls. Cultures were observed daily until control cultures had developed prominent multi-layered aggregates of spindle cells. Typically this took 5-10 days with some variation between replicate experiments. Each experiment was performed at least three times and was performed with mock-infected as well as KSHV-infected DMVEC. As expected, mock-infected DMVEC maintained a quiescent monolayer at confluence, and PMO-AS treatment of uninfected cells occurred without any adverse effect. This observation allowed verification that none of the gene knockdown treatments induced non-specific toxicity in DMVEC. The majority of tested PMO-AS had no effect on the ability of KSHV-infected DMVEC to grow post-confluence and form disorganized, multi-layered foci (TABLE 2).

[2] = test system: KSHV-infected DMVEC; test: XTT proliferation assay of PMO-loaded KSHV-infected DMVEC (Example 3); conditions: PMO antisense silencing
Method: Proliferation assays, and loading of cells with PMOs. Proliferation of KSHV-infected DMVEC was quantified using an XTT (2,3-bis-(2-methoxy-4-nitro-5-sulfophenyl)-2H-tetrazolium-5-carboxanilide, disodium salt)-based assay. KSHV-infected cells were added to Primaria 96-well trays (Becton Dickinson) at 1×10^4 or 5×10^4 cells/well. XTT (Roche, Molecular Biochemicals, Indianapolis, Ind.) was added 48 hours later according to the manufacturer's instructions. Absorbance was read after 4 to 6 hours on a microplate reader.
Briefly, cells were plated in 96-well trays at a density approaching confluence (5×10^4 cells per well) in 100 μl of complete medium. PMOs were loaded the following day in a total of 100 μl (0.5 μl PMO, 0.5 μl EPEI, 49 μl H2O and 50 μl serum free medium) with reagent mixing as described by the manufacturer (GeneTools). Controls included a FITC PMO control oligonucleotide, EPEI only or H2O only. Each variable was performed in quadruplicate. Fresh complete medium was replaced 4 hours after loading. Cells were cultured for 4 days to allow for multi-layered cell growth post-confluence in the absence of any growth inhibition. XTT was added on day 4 of culture and the absorbance read 4 hrs later on a microplate reader. Cell proliferation (growth) values are given as percentage inhibition values, relative to cells without PMO, which are adjusted to 100%.

[3] = test system: KSHV-infected DMVEC; test: PMO antisense inhibition of KSHV-induced spindle cell and foci formation (Example 3); conditions: for Extent of PMO-induced Inhibition of Spindle Cell Formation: KSHV-infected DMVEC loaded with gene-specific PMO antisense + EPEI; for Phenotype Inhibition (inhibition of spindle cell formation) / KSHV-induced spindle cell / foci formation (in words): KSHV-infected DMVEC; for Phenotype Inhibition (inhibition of spindle cell formation): gene-specific PMO antisense; for KSHV-induced spindle cell / foci formation (in words): PMO antisense, c-Kit: 1.25 nmol PMO + 2.5 μl EPEI per 35 mm dish
From the text: Antisense Gene Silencing using PMOs. […] Silencing of such genes precluded progression into the transformed phenotype when silencing occurred prior to transformation, or induced reversion to the normal state when silencing occurred after induction of the transformed state (see TABLE 2 below).
Introduction of antisense PMO into KSHV-infected DMVEC. Antisense PMO molecules, for delivery purposes, are typically converted to a paired duplex together with a partially complementary cDNA oligonucleotide in the weakly basic delivery reagent ethoxylated polyethylenimine (EPEI) (Summerton, supra). The anionic complex binds to the cell surface, is taken up by endocytosis and eventually released into the cytosol. A protocol for optimum uptake of antisense PMO in immortalized DMVEC was developed using a modification of the EPEI method. Briefly, uninfected, immortalized DMVECs were incubated for 3 hours at 37° C. with 0.6 nmol/well FITC-PMO complexed with EPEI according to the manufacturer's instructions (GeneTools, LLC, One Summerton Way, Philomath, Oreg. 97370) (e.g., 1.25 nMol oligomer with 2.5 μl EPEI reagent per 35 mm dish, allowing for sufficient antisense uptake without non-specific EPEI-induced toxicity). The PMOs were labeled with FITC to allow for monitoring of loading efficiency by fluorescence microscopy.
Specifically, DMVEC were infected with KSHV, plated in 35 mm dishes and allowed to grow to about 90% confluence. For treatment, KSHV-infected cells were treated with the anti-c-Kit PMO-antisense oligomer-EPEI delivery reagent complex and incubated for 3 hours at 37° C. in serum-free medium to allow for oligomer uptake. A titration experiment testing a range of different oligomer/EPEI volumes was used to determine that loading 1.25 nmol oligomer with 2.5 μl EPEI reagent per 35 mm dish allowed efficient antisense uptake without non-specific EPEI-induced toxicity. Control (mock-treated) DMVEC cultures were loaded with EPEI reagent and sterile water or sterile water alone. Upon removal of the oligomer-EPEI solution, cell monolayers were rinsed in serum-free medium fed with complete medium and examined daily for one week by phase microscopy for evidence of phenotypic change.

| Substance | Foci/spindle morpholigical inhibition [1] | inhibition of KSHV-induced cellular proliferation (in words) [2] | Extent of PMO-induced Inhibition of Spindle Cell Formation [3] | Phenotype Inhibition (inhibition of spindle cell formation) [3] | KSHV-induced spindle cell / foci formation (in words) [3] | KSHV-induced spindle cell / foci formation (in words) ([3]; listed as c-Kit) | effect on phenotype (foci, spindle shape) in focus-inhibition assay (in words) [1] |
| --- | --- | --- | --- | --- | --- | --- | --- |
| KIT: FITC-labeled PMO targeting the start codon of c-Kit, CGCCTCTCATCGCGGTAGCTGCG (SEQ ID NO:21) (all phosphorodiamidate morpholino (PMO); FITC label attached, position not given here) | Full | substantial inhibition | full | Full | fully reversed spindle cell formation | did not develop foci |  |
| Neuritin: PMO antisense to Neuritin, TTAACTCCCATCCTACGTTTAGTCA (SEQ ID NO:19) (all phosphorodiamidate morpholino (PMO); delivered paired with partially complementary DNA oligo (Special Delivery)) | Full | substantial inhibition | full | Full | fully reversed spindle cell formation |  | dramatic effect on phenotype |
| RDC-1: PMO antisense to RDC-1, GAAGAGATGCAGATCCATCGTTCTG (SEQ ID NO:15) (all phosphorodiamidate morpholino (PMO); delivered paired with partially complementary DNA oligo (Special Delivery)) | Full | substantial inhibition | full | full and Full | fully reversed spindle cell formation |  | dramatic effect on phenotype |
